Measured values taken from article PMC4965013, “Open Source Drug Discovery with the Malaria Box Compound Collection for Neglected Diseases and Beyond” (PLoS Pathogens, 2016).
Each block holds one compound with its values, some of them ahead of it.

Key:
[1] = test system: P. falciparum; experiment: EC50 listed in S2 Table Metabolomics (used to set the concentration tested); assay type: cell-based; details: Plasmodium falciparum; EC50 used for Factor_XEC50 in metabolomics; read-out: EC50_nM
[2] = test system: P. falciparum 3D7 trophozoites; experiment: Metabolomic fingerprint profiling LC-MS; assay type: cell-based, Plasmodium falciparum; parameters: UDP-D-glucose / ADP-D-glucose: unit not given here; details: for Acetyllysine / N-acetyl-L-ornithine / N-carbamoyl-L-aspartate / NADPH / dAMP / dCMP / dTDP / dTMP / dTTP / dihydroorotate / orotate / DLH / DLS/SDL/SID / PD / PEE / PVNF / 3-phosphoglycerate / ADP-D-glucose / ATP / CDP / D-sedoheptulose-1/7-phosphate / FAD / GMP / NAD+ / NADP+ / Octoluse Bisphosphate / Pyroglutamic acid / UDP-D-glucose / UDP-D-glucuronate / UDP-N-acetyl-glucosamine / UDP / UMP / UTP / a-ketoglutarate / citrate/isocitrate / cytidine / dATP / dGMP/AMP / fumarate / glucose-1/6-phosphate / glycerate / guanine / guanosine / hypoxanthine / indole / inosine / nicotinate / ornithine / phosphoenolpyruvate / pyruvate / ribose-phosphate / sarcosine/alanine / sn-glycerol-3-phosphate / succinate/methylmalonic acid / uridine / xanthosine: S2 Table Metabolomics; for Acetyllysine: metabolite Acetyllysine; for N-acetyl-L-ornithine: metabolite N-acetyl-L-ornithine; for N-carbamoyl-L-aspartate: metabolite N-carbamoyl-L-aspartate; for NADPH: metabolite NADPH; for dAMP: metabolite dAMP; for dCMP: metabolite dCMP; for dTDP: metabolite dTDP; for dTMP: metabolite dTMP; for dTTP: metabolite dTTP; for dihydroorotate: metabolite dihydroorotate; for orotate: metabolite orotate; for DLH: peptide DLH; for DLS/SDL/SID: peptide DLS/SDL/SID; for PD: peptide PD; for PEE: peptide PEE; for PVNF: peptide PVNF; for 3-phosphoglycerate: metabolite 3-phosphoglycerate; for ADP-D-glucose: metabolite ADP-D-glucose; for ATP: metabolite ATP; for CDP: metabolite CDP; for CDP / D-sedoheptulose-1/7-phosphate / GMP / Octoluse Bisphosphate / UDP / UMP / UTP / citrate/isocitrate / dGMP/AMP / fumarate / glucose-1/6-phosphate / glycerate / guanine / guanosine / inosine / pyruvate / sarcosine/alanine / succinate/methylmalonic acid / uridine / xanthosine: change in metabolite level after compound treatment; for D-sedoheptulose-1/7-phosphate: metabolite D-sedoheptulose-1/7-phosphate; for FAD: metabolite FAD; for GMP: metabolite GMP; for NAD+: metabolite NAD+; for NADP+: metabolite NADP+; for Octoluse Bisphosphate: metabolite Octoluse Bisphosphate; for Pyroglutamic acid: metabolite Pyroglutamic acid; for UDP-D-glucose: metabolite UDP-D-glucose; for UDP-D-glucuronate: metabolite UDP-D-glucuronate; for UDP-N-acetyl-glucosamine: metabolite UDP-N-acetyl-glucosamine; for UDP: metabolite UDP; for UMP: metabolite UMP; for UTP: metabolite UTP; for a-ketoglutarate: metabolite a-ketoglutarate; for citrate/isocitrate: metabolite citrate/isocitrate; for cytidine: metabolite cytidine; for dATP: metabolite dATP; for dGMP/AMP: metabolite dGMP/AMP; for fumarate: metabolite fumarate; for glucose-1/6-phosphate: metabolite glucose-1/6-phosphate; for glycerate: metabolite glycerate; for guanine: metabolite guanine; for guanosine: metabolite guanosine; for hypoxanthine: metabolite hypoxanthine; for indole: metabolite indole; for inosine: metabolite inosine; for 2_3-Diphosphoglyceric acid / 4-phosphopantothenate / 6-phospho-D-gluconate / FMN / IMP / Pyrophosphate / Sedoheptoluse bisphosphate / cyclic-AMP / glutathione disulfide / lactate / myo-inositol: metabolite level change after treatment; for nicotinate: metabolite nicotinate; for ornithine: metabolite ornithine; for phosphoenolpyruvate: metabolite phosphoenolpyruvate; for pyruvate: metabolite pyruvate; for ribose-phosphate: metabolite ribose-phosphate; for sarcosine/alanine: metabolite sarcosine/alanine; for sn-glycerol-3-phosphate: metabolite sn-glycerol-3-phosphate; for succinate/methylmalonic acid: metabolite succinate/methylmalonic acid; for uridine: metabolite uridine; for xanthosine: metabolite xanthosine

SMILES: CCCc1cc(O)c2c3c(c(=O)oc2c1)CN(C)CC3 [MMV665841]
EC50 [1]: 146 nM | Acetyllysine [2]: -2.612 | N-acetyl-L-ornithine [2]: -1.949 | N-carbamoyl-L-aspartate [2]: -0.955 | NADPH [2]: 0.07097 | dAMP [2]: -0.5338 | dCMP [2]: 0.378 | dTDP [2]: -0.09857 | dTMP [2]: -0.08494 | dTTP [2]: 0.3392 | dihydroorotate [2]: -0.7381 | orotate [2]: -0.6991 | DLH [2]: -2.223 | DLS/SDL/SID [2]: -2.0523 | PD [2]: -2.506 | PEE [2]: -2.465 | PVNF [2]: -2.267 | 3-phosphoglycerate [2]: 0.2411 | ADP-D-glucose [2]: 0.03562 | ATP [2]: 0.3706 | CDP [2]: -0.1497 | D-sedoheptulose-1/7-phosphate [2]: -0.0969 | FAD [2]: 0.4757 | GMP [2]: 0.7431 | NAD+ [2]: 0.1538 | NADP+ [2]: 0.3743 | Octoluse Bisphosphate [2]: -0.2246 | Pyroglutamic acid [2]: 0.8685 | UDP-D-glucose [2]: 0.1781 | UDP-D-glucuronate [2]: 0.2234 | UDP-N-acetyl-glucosamine [2]: 0.1163 | UDP [2]: -0.165 | UMP [2]: 0.01879 | UTP [2]: 0.1488 | a-ketoglutarate [2]: -1.017 | citrate/isocitrate [2]: -0.03416 | cytidine [2]: 0.6575 | dATP [2]: -0.1225 | dGMP/AMP [2]: -0.03336 | fumarate [2]: -0.991 | glucose-1/6-phosphate [2]: 0.02998 | glycerate [2]: -0.7467 | guanine [2]: -0.195 | guanosine [2]: -0.4835 | hypoxanthine [2]: 0.1991 | indole [2]: -0.2191 | inosine [2]: 0.006205 | 2_3-Diphosphoglyceric acid [2]: 0.1243 | 4-phosphopantothenate [2]: -0.4271 | 6-phospho-D-gluconate [2]: -0.03292 | FMN [2]: 0.1348 | IMP [2]: -0.4143 | Pyrophosphate [2]: 0.01603 | Sedoheptoluse bisphosphate [2]: -0.2052 | cyclic-AMP [2]: -0.23 | glutathione disulfide [2]: -0.3848 | lactate [2]: -0.3481 | myo-inositol [2]: -0.7715 | nicotinate [2]: -0.06082 | ornithine [2]: -0.04541 | phosphoenolpyruvate [2]: 0.2681 | pyruvate [2]: -0.1725 | ribose-phosphate [2]: -0.5158 | sarcosine/alanine [2]: -1.291 | sn-glycerol-3-phosphate [2]: -0.1021 | succinate/methylmalonic acid [2]: -0.1585 | uridine [2]: -0.2002 | xanthosine [2]: -0.28

EC50 [1]: 148 nM
SMILES: COc1ccc(C2=C(c3ccc(OC)cc3)C3(c4ccccc4)C(=O)C2(c2ccccc2)C2C(=O)N(c4ccc(C)cc4)C(=O)C23)cc1 (stereo not shown) [MMV666101]
Acetyllysine [2]: -0.1129 | N-acetyl-L-ornithine [2]: 0.1609 | N-carbamoyl-L-aspartate [2]: -0.002224 | NADPH [2]: -0.9507 | dAMP [2]: -0.2629 | dCMP [2]: 0.3804 | dTDP [2]: 0.03996 | dTMP [2]: 0.002701 | dTTP [2]: 0.2425 | dihydroorotate [2]: 0.3476 | orotate [2]: -0.884 | DLH [2]: 0.3443 | DLS/SDL/SID [2]: 0.3548 | PD [2]: 0.01018 | PEE [2]: 0.2697 | PVNF [2]: 0.3279 | 3-phosphoglycerate [2]: -0.07386 | ADP-D-glucose [2]: 0.1248 | ATP [2]: 0.5165 | CDP [2]: 0.04064 | D-sedoheptulose-1/7-phosphate [2]: 0.08624 | FAD [2]: 0.1013 | GMP [2]: 0.6118 | NAD+ [2]: -0.01164 | NADP+ [2]: 0.3941 | Octoluse Bisphosphate [2]: 0.2807 | Pyroglutamic acid [2]: 0.2222 | UDP-D-glucose [2]: -0.02174 | UDP-D-glucuronate [2]: 0.06413 | UDP-N-acetyl-glucosamine [2]: 0.01073 | UDP [2]: 0.07085 | UMP [2]: 0.1142 | UTP [2]: 0.03866 | a-ketoglutarate [2]: -0.8357 | citrate/isocitrate [2]: -1.04 | cytidine [2]: 0.3993 | dATP [2]: -0.09007 | dGMP/AMP [2]: -0.1266 | fumarate [2]: -0.05622 | glucose-1/6-phosphate [2]: 0.03368 | glycerate [2]: -0.6868 | guanine [2]: -0.559 | guanosine [2]: -0.9392 | hypoxanthine [2]: -0.6138 | indole [2]: -0.8533 | inosine [2]: -0.8697 | 2_3-Diphosphoglyceric acid [2]: 0.4338 | 4-phosphopantothenate [2]: -0.011 | 6-phospho-D-gluconate [2]: 0.058 | FMN [2]: 0.02064 | IMP [2]: -0.3616 | Pyrophosphate [2]: 0.3662 | Sedoheptoluse bisphosphate [2]: 0.08206 | cyclic-AMP [2]: -0.009901 | glutathione disulfide [2]: 0.01065 | lactate [2]: -0.9335 | myo-inositol [2]: -1.462 | nicotinate [2]: -1.016 | ornithine [2]: -0.4187 | phosphoenolpyruvate [2]: 0.02347 | pyruvate [2]: -0.8543 | ribose-phosphate [2]: -0.007312 | sarcosine/alanine [2]: 0.06192 | sn-glycerol-3-phosphate [2]: -0.02979 | succinate/methylmalonic acid [2]: -0.01842 | uridine [2]: -0.9813 | xanthosine [2]: -0.2752
